Test system: DNA substrate containing the NFkβ consensus sequence
Experiment: DNase protection assay for DNA-protein interactions (ECL)
Assay type: binding
Description: This example illustrates the use of the invention to measure protein-DNA interactions, specifically, the binding of the transcription factor NFkβ with its consensus DNA sequence. A schematic depicting the assay format can be found in the detailed description of the invention. DNAse 1 and NFkβ were purchased from Promega Corp. A DNA substrate containing a consensus DNA sequence for NFk was prepared by Midland Certified Reagent Co. by solid phase synthesis. The sequence of the substrate is shown below. The nucleotides shown in brackets were linked by phosphorothioate linkages; the other linkages were standard phosphodiester bonds. […]
The labeled DNA substrate (50 fmol), poly dI-dC (1 ug, to reduce non-specific protein-DNA interactions) and varying amounts of recombinant NFkβ (p50 subunit) were combined in a 20 uL volume and incubated for 30 min. at room temperature. […] The reaction mixture was introduced into an ORIGEN Analyzer (IGEN International) running in Magnetic Capture Mode and the ECL signal from RuBpy on the magnetic beads was determined in the presence of a solution containing tripropylamine (ORIGEN Assay Buffer, IGEN International). […]
The specificity of the assay was determined by replacing the specific binding protein NFkβ with other DNA binding proteins specific for sequences not present on the DNA substrate (the phosphorothioate containing substrate was used).

AP-2: DNA binding protein specific for sequences not present on the DNA substrate
nuclease protection of the DNA substrate containing the NFkβ consensus sequence (in words): no ability to protect against nuclease attack
ECL Signal (specificity test, DNase added, phosphorothioate containing NFkβ consensus substrate): 32289

From patent publication US7439017B2, “Assays for measuring nucleic acid binding proteins and enzyme activities” (BioVeris Corporation, priority 1998, dated 2008)
